Source: patent US20210386709A1, “COMPOSITIONS AND METHODS FOR SUPPRESSING MSUT2” (United States Government As Represented By The Department …, priority 2020, published 2021)
Where two headings read alike, the source gives them in different places. {FAM} = fluorescein amidite label

Assays:
MSUT2 ZF = target: T1, MSUT2 ZF (Homo sapiens, UniProt Q6PJT7); assay: Fluorescence polarization assay of FAM-poly(A) RNA:MSUT2 ZF binding; conditions: for Ki (nm) for MSUT2 / Ki: calculated by Cheng Prusof equation Ki=(IC50)/[(L/Kd)+1], FP dose response; for Ki: read-out: Ki (nm) for MSUT2
T1 construct: Targeted construct consisted of the c-terminal end (dark blue and amino acids 601-736) of MSUT2; made in house; host or cells: E. coli BL21 (DE3)
T1 sequence (Q6PJT7 601-736): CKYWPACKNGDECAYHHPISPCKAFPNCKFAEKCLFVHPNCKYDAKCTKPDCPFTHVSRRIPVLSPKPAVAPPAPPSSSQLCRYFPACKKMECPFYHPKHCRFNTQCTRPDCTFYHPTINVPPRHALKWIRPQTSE
Experimental: Fluorescence Polarization Assay. […] 2 μL of compound was transferred for a final concentration of 10 μM. […] Fluorescence polarization was calculated by first subtracting background from a buffer-only control well and then using the equation
Results and Discussion. A high-throughput fluorescence polarization assay for inhibition of poly(A):MSUT2 RNA interaction. […] In order to screen potential inhibitors of MSUT2 RBP and RNA by FP, fluorescent FAM (fluorescein amidite)-labeled poly(A)15 RNA (FAM-RNA) and recombinant MSUT2 ZF (zinc finger) protein expressing constructs were generated (FIG. 7a). […] Inhibition of the interaction results in unbound FAM-RNA tumbling at a relatively rapid rate and emitting non-polarized light (FIG. 7b).
(§1) To determine the concentrations of both MSUT2 ZF protein and FAM-RNA probe useful in the methods described herein, a two dimensional titration of protein and RNA concentrations in 96-well format was performed. […] Next, the binding constant between MSUT2 ZF and FAM-RNA was determined by holding FAM-RNA constant at 10 nM while increasing MSUT2 ZF concentration.
(§2) Identification and validation of MSUT2 inhibitory compounds from NIHCC library. […] IC50 of each of the previous 8 compounds was determined for PABPN1 using fluorescence polarization (FIG. 11), and a specificity ratio determined (Table 3). An Alpha Screen (AS) assay was developed as an orthogonal screen. Briefly, in this screen, biotinylated RNA binds streptavidin-coated donor beads, while GST-MSUT2 ZF binds glutathione-coated acceptor beads. When donor beads and acceptor beads are brought within close proximity of one another, laser excitation leads to fluorophore emission of the acceptor bead via excited singlet oxygen activating chemiluminescers in the acceptor beads. […] Toxicity of these compounds in a HEK cell model was determined using a standard Promega Cell Titer Glo assay.
(§3) Fluorescence Polarization Assay. […] of stock compound was transferred yielding 10 μM final concentration. […] Fluorescence polarization was calculated by first subtracting background from a buffer-only control well and then using the equation

HEK-293 cells = assay: Cell viability, Promega Cell Titer Glo
PABPN1 [1] = target: T2, PABPN1 (Homo sapiens, UniProt Q86U42); assay: PABPN1 fluorescence polarization counter screen; format: binding; conditions: for IC50 / IC50PABPN1: fluorescence polarization counter screen; for IC50: unit inferred, read-out: IC50PABPN1; for PABPN1/MSUT2 specificity ratio: ratio of FP IC50s; for IC50PABPN1: unit not given
T2 construct: made in house; host or cells: E. coli BL21 (DE3)
T2 sequence (Q86U42 1-306): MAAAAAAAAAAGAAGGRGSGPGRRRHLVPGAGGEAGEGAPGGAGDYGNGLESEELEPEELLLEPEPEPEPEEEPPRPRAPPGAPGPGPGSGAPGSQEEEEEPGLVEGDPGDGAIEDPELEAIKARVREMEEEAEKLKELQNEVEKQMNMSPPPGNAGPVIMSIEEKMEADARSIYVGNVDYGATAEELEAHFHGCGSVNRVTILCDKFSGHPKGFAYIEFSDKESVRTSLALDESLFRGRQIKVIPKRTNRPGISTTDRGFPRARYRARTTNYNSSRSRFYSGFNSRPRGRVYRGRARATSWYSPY
Experimental: A drug repurposing strategy: screening of the NIH Clinical Collection compound library. […] The plan to find suitable lead compounds for drug repurposing began with a screen of the NIH Clinical Collection (NIHCC) library. The NIHCC consists of a diverse array of 700 compounds with historical pharmacological use and well-studied safety profiles. […] An orthogonal poly(A):MSUT2 binding assay allowed the ruling out of assay interference while selectivity against MSUT2 over PABPN1 was determined by a parallel FP assay with PABPN1 as the RBP. […] Thus, the goal was to eliminate compounds interfering with both PABN1 and MSUT2 and focus on compounds truly specific for poly(A):MSUT2 binding.
as §2, §3

MSUT2 = target: T3, MSUT2 (Homo sapiens, UniProt Q6PJT7); conditions: read-out: Kd of MSUT2 for poly(A); cited from earlier work
T3 sequence (Q6PJT7 1-736): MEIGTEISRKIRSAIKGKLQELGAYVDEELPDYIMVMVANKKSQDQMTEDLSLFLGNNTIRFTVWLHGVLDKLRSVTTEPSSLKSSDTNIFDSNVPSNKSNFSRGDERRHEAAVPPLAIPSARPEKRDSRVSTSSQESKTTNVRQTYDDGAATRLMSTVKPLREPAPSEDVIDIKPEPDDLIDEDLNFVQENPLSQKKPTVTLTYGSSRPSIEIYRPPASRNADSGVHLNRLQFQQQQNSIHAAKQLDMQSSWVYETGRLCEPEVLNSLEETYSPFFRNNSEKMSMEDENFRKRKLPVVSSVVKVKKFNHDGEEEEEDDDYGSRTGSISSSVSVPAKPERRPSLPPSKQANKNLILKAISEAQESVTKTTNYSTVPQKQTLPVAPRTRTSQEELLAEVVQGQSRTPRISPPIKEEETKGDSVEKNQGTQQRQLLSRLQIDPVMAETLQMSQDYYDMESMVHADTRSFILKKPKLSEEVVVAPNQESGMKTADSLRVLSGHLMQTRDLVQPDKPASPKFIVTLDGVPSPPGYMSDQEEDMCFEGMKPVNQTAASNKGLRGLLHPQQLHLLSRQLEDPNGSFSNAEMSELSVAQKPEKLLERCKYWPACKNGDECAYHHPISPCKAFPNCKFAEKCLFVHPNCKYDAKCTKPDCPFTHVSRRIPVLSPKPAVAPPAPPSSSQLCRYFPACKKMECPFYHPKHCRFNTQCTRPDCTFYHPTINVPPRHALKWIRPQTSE

GST-MSUT2 = target: T4, GST-MSUT2 (Homo sapiens, UniProt Q6PJT7); assay: Alpha Screen assay of biotinylated poly(A) RNA:GST-MSUT2 binding; conditions: orthogonal dose-response validation
T4 construct: Targeted construct consisted of the c-terminal end (dark blue and amino acids 601-736) of MSUT2; made in house; host or cells: E. coli BL21 (DE3)
T4 sequence (Q6PJT7 601-736): T1 sequence (Q6PJT7 601-736)
Experimental: Alpha Screen Assay. Samples were set up in 384 well Perkin Elmer white opaque-bottom plates (PE06). A total reaction volume of […] was plated in 384 format using a CyBio Well Vario (6 μL of donor beads (10 μg/mL), 3 μL biotinylated RNA (250 nM), 3 μL GST-MSUT2 protein (250 nM) per well). 50 nL of compounds were transferred to wells via CyBio Vario equipped with Pin Tool. This mixture was incubated at room temperature for 30 minutes away from light. Next 3 μL of acceptor beads (1.25 μg/mL) was added. Plates were incubated at room temperature away from light for 60 minutes and subsequently read on a Perkin Elmer EnVision multimode microplate reader equipped with stackers using a standard 384-well Alpha Assay software protocol.
Results. Alpha Screen design and underlying principle. Alpha Screen technology relies on donor beads, coated with a hydrogel excitable by 680 nm, brought within close proximity to an acceptor bead leading to light emission and detection. In this assay, streptavidin coated donor beads tightly bind to biotinylated-poly(A) RNA while the glutathione-coated acceptor bead binds to GST-tagged MSUT2 protein. […] When this interaction is blocked by an inhibitor, the proximity threshold for donor and acceptor beads is not met, singlet oxygen transference cannot occur, and light is not emitted by the acceptor bead (FIG. 1a).
Identification and validation of MSUT2 inhibitory compounds from NIHCC library. The single-point primary screen was conducted in duplicate and utilized the FP assay conditions determined herein (e.g., 125 nM MSUT2 RNABP and 10 nM FAM-RNA probe) with 10 μM library compounds added in a 96-well format. […] Compound specificity was empirically tested by counter screening against PABPN1, a regulator of the length of mRNA poly(A) tails (Apponi, L. H. et al. Hum Mol Genet 19, 1058-1065, (2010); and Benoit, B. et al. Dev Cell 9, 511-522, (2005)). IC50 of each of the previous 8 compounds was determined for PABPN1 using fluorescence polarization (FIG. 11), and a specificity ratio determined (Table 3). An Alpha Screen (AS) assay was developed as an orthogonal screen. Briefly, in this screen, biotinylated RNA binds streptavidin-coated donor beads, while GST-MSUT2 ZF binds glutathione-coated acceptor beads. […] Toxicity of these compounds in a HEK cell model was determined using a standard Promega Cell Titer Glo assay.
Alpha Screen Assay. […] The plate was then incubated again at room temperature away from light for 60 minutes and subsequently read on a Perkin Elmer EnSight multimode microplate reader using a standard 96-well Alpha Assay protocol.

[2] = target: T5, MSUT2 ZF (ZC3H14 C-terminal CCCH zinc finger domain) (UniProt Q6PJT7 Q6PJT7:601-736); assay: competition; FP competition, 10 nM FAM-RNA and 125 nM MSUT2 ZF, PBS; conditions: tags: GST (pGEX-6P1)
T5 sequence: T1 sequence (Q6PJT7 601-736)
Experimental: as §1, §3

PABPN1 [3] = target: T6, PABPN1 (UniProt Q86U42 Q86U42:1-306); assay: Alpha Screen counter-screen; conditions: tags: GST (pGEX-6P1); label: 5' biotin
T6 sequence: T2 sequence (Q86U42 1-306)

[4] = target: T5, MSUT2 ZF (ZC3H14 C-terminal CCCH zinc …); assay: FP; PBS, room temperature, 10 nM FAM-RNA; reported as affinity / binding constant; conditions: tags: GST (pGEX-6P1); label: 5' FAM
Experimental: as §1, §3

unlabeled poly(A)15 RNA: unlabeled poly(A) RNA 5′-AAAAAAAAAAAAAAA-3′ (SEQ ID NO: 2), positive control for inhibition (RNA, backbone not given here)
IC50 (MSUT2 ZF; 10 nM FAM-RNA:125 nM MSUT2 ZF, positive control, read-out: IC50 in FP competition assay): 320 nM

O=C(O)C1=CC(=C(c2ccc(O)c(C(=O)O)c2)c2ccc(O)c(C(=O)O)c2)C=CC1=O [Aurin tricarboxylic acid]
toxicity (effect on cell viability) (HEK-293 cells; HEK-293, 72 hours, indicated concentrations): relatively high toxicity at high concentrations

CC(C(=O)O)c1ccc(-c2ccccc2)c(F)c1 (stereo not drawn) [Flurbiprofen]
IC50 (PABPN1 [1]): 6570 nM

poly(A): poly(A) RNA, natural ligand of MSUT2 (AAAAAAAAAAAAAAA; RNA, backbone not given here)
Kd (MSUT2): 60 ± 15 nM

C[C@H]1CCC[C@H](O)CCCCCc2cc(O)cc(O)c2C(=O)O1 [Zeranol]
Ki (nm) for MSUT2 (MSUT2 ZF): failed DR

OCCOCCN1CCN(C(c2ccccc2)c2ccc(Cl)cc2)CC1 (stereo not drawn) [Hydroxyzine]
Ki (MSUT2 ZF): 573 nM
IC50 (PABPN1 [1]): 23700 nM
PABPN1/MSUT2 specificity ratio (PABPN1 [1]): 40.7931

CC(C)(C)NC(=O)[C@@H]1C[C@@H]2CCCC[C@@H]2CN1C[C@@H](O)[C@H](Cc1ccccc1)NC(=O)[C@H](CC(N)=O)NC(=O)c1ccc2ccccc2n1 [Saquinavir]
inhibition activity by Alpha Screen (AS) (GST-MSUT2): dose-dependent inhibition activity
cell viability (HEK-293 cells; HEK, highest tested dose of 4004, normalized to 2% DMSO vehicle): 65%
Ki (MSUT2 ZF): 188 nM
IC50PABPN1 (PABPN1 [1]): None

CNCC[C@@H](Oc1ccccc1C)c1ccccc1 [Atomoxetine]
Ki (nm) for MSUT2 (MSUT2 ZF): failed dose

CC(C)(C)NC(=O)[C@@H]1CN(Cc2cccnc2)CCN1C[C@@H](O)C[C@@H](Cc1ccccc1)C(=O)N[C@H]1c2ccccc2C[C@H]1O [Indinavir]
Ki (MSUT2 ZF): 916 nM
IC50 (MSUT2 ZF; read-out: IC50MSUT2): 927 nM
IC50 (PABPN1 [1]): 28900 nM

CN1C2CCCC1CC(NC(=O)c1nn(C)c3ccccc13)C2 (stereo not drawn) [Granisetron]
Ki (MSUT2 ZF): 534 nM
IC50 (MSUT2 ZF; read-out: IC50MSUT2): 541 nM
IC50PABPN1 (PABPN1 [1]): None

O=C(N[C@H](CO)[C@H](O)c1ccc([N+](=O)[O-])cc1)C(Cl)Cl [Chloramphenicol]
Ki (nm) for MSUT2 (MSUT2 ZF): failed DR

FAM-RNA: fluorescent FAM (fluorescein amidite)-labeled poly(A)15 RNA probe (SEQ ID NO: 3) (AAAAAAAAAAAAAAA; RNA, 5' {FAM}, backbone not given here)
Kd (MSUT2 ZF; saturation assay, FAM-RNA constant at 10 nM, read-out: affinity for FAM-RNA:MSUT2 ZF interaction): 810 nM

CCCCN1CCCC1CNC(=O)c1cc(C#N)c2ccccc2c1OC (stereo not drawn) [Nafadotride]
Ki (MSUT2 ZF): 867 nM
IC50 (PABPN1 [1]): 67700 nM
PABPN1/MSUT2 specificity ratio (PABPN1 [1]): 77.11

AAAAAAAAAAAAAAA (ssRNA) [poly(A)15 unlabeled]
IC50 [2]: 320 nM

AAAAAAAAAAAAAAA (ssRNA) [biotin-poly(A)15]
binding result (PABPN1 [3]): binds

AAAAAAAAAAAAAAA (ssRNA) [FAM-poly(A)15]
Kd [4]: 810 nM
